# Measured values taken from paper PMC2848180 (American journal of obstetrics and gynecology, 2010).
# Several values for one entry are separate records, joined by “and”; a condition that tells them apart may be missing. Identical values can stand only once.
# How the values were obtained:
# [1] = test system: P-gp, BCRP, and MRP1; conditions: 100 nM drug, 1 μM KO143, placental IOVs, 1 min
# [2] = test system: placental ABC transporters (placental IOVs); assay type: in vitro ADME, human; conditions: for total ATP-dependent uptake by placental IOVs: 100 nM radiolabeled drug, 1 min, pool of 60 term placentas
# [3] = target: MRP1 (Homo sapiens, UniProt P33527); conditions: placental IOVs
# Chain of MRP1 (P33527 whole entry): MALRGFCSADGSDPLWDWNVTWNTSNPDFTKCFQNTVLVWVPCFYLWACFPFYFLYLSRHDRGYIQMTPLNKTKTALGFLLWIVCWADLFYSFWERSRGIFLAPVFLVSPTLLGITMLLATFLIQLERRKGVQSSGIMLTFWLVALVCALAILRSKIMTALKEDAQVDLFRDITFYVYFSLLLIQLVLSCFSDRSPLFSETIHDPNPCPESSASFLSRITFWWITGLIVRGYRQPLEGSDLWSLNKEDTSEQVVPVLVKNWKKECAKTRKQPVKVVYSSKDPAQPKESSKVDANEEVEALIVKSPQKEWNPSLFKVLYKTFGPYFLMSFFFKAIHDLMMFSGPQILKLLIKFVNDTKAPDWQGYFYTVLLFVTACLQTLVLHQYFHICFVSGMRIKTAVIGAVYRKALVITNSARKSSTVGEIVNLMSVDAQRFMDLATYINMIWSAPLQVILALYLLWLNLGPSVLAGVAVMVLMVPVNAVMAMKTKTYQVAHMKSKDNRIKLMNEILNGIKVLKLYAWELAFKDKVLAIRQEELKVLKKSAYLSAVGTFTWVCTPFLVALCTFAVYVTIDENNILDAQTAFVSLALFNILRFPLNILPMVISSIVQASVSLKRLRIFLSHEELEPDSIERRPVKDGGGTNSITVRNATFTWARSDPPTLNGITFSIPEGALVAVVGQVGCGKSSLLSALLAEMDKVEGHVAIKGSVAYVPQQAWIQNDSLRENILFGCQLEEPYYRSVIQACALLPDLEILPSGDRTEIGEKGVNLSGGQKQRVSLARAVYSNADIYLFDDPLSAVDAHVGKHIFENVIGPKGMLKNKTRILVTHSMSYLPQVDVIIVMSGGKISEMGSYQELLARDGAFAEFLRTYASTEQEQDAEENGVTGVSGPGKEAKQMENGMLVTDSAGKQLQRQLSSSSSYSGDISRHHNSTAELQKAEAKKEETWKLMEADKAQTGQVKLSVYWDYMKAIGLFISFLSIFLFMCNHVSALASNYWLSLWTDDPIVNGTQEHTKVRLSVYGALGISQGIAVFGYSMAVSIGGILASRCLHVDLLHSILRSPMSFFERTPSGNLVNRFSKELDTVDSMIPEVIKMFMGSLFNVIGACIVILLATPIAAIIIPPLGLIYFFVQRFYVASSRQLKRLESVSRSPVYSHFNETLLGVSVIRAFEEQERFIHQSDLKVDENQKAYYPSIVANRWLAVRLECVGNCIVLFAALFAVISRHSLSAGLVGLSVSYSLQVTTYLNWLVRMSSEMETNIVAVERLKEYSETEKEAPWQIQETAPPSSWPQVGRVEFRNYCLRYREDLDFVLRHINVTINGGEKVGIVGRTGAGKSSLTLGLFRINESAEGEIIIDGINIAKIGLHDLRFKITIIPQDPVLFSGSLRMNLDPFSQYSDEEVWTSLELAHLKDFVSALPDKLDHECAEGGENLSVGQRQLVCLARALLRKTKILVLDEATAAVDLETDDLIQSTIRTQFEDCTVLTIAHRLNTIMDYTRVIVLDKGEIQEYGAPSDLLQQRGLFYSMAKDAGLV
# [4] = target: T1, P-gp (Homo sapiens, UniProt P08183); conditions: placental IOVs
# T1 sequence (P08183 whole entry): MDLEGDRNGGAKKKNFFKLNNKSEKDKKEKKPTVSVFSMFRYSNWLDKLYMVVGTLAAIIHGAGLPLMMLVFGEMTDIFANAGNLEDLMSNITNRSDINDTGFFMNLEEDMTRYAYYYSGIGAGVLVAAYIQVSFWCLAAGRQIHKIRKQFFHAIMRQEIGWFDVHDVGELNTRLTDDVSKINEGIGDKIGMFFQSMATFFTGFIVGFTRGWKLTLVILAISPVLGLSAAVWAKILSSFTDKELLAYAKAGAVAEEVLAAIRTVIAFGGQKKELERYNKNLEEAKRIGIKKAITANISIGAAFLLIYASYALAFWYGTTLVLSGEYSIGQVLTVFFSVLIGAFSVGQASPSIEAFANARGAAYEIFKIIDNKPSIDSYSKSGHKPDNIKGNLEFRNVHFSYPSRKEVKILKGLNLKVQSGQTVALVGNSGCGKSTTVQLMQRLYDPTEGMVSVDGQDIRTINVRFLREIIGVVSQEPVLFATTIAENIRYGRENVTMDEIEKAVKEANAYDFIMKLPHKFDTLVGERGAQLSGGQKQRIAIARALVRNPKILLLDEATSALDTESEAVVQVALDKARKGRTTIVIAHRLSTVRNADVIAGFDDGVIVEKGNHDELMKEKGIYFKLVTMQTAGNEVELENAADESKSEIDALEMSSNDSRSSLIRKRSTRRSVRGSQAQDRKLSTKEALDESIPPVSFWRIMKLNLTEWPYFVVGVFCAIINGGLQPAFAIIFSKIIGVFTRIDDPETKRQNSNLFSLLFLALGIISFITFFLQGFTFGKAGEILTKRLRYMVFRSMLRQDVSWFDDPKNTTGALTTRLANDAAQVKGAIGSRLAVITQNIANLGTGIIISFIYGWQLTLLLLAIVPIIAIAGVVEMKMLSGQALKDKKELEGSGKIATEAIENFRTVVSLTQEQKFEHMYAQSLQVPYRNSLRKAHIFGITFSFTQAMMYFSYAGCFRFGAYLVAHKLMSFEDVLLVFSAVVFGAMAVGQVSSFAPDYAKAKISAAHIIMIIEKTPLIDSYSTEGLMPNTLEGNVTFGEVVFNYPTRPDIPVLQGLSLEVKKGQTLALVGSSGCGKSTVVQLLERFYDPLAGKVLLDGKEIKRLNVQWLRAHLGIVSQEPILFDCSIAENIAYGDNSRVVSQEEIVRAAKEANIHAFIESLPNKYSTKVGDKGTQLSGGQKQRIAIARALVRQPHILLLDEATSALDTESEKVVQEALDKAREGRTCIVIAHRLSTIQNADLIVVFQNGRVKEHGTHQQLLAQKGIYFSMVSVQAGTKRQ
# [5] = target: T1, P-gp; experiment: Inhibition of [3H]-rosiglitazone uptake by placental IOVs by cold metformin; assay type: in vitro ADME
# [6] = target: T2, BCRP (Homo sapiens, UniProt Q9UNQ0); conditions: 100 nM drug, 25 nM KO143, placental IOVs, 1 min
# T2 sequence (Q9UNQ0 1-655): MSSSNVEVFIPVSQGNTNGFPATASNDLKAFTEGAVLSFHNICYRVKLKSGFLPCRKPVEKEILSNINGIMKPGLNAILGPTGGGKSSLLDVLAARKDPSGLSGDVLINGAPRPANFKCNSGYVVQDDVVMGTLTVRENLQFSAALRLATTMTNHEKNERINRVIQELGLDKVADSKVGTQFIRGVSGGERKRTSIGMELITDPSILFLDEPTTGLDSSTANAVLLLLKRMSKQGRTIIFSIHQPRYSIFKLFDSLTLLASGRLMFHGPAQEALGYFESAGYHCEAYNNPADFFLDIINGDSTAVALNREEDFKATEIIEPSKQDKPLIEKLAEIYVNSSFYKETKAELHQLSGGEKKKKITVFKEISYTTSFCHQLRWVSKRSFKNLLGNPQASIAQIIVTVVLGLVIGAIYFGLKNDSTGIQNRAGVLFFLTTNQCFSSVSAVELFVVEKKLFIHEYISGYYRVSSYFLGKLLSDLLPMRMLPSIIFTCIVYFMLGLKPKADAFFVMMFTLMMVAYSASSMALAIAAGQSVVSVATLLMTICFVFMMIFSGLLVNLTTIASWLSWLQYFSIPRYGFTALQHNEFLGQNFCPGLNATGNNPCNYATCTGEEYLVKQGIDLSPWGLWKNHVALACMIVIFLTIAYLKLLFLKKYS
# [7] = target: T1, P-gp; conditions: placental brush border membrane vesicles; cited from earlier work
# [8] = 100 nM, ABC transporters examined
compound,measurement,setting,value
COc1ccc(Cl)cc1C(=O)NCCc1ccc(S(=O)(=O)NC(=O)NC2CCCCC2)cc1 [glyburide],"decrease of uptake on total inhibition of P-gp, BCRP, and MRP1 using 1 μM KO143",[1],78 ± 4%
same,total ATP-dependent uptake by placental IOVs,[2],3.2 ± 0.3 pmol/mg protein*min
same,apparent Kt of ATP-dependent transport by MRP1,[3],358 ± 195 nM
CN(CCOc1ccc(CC2SC(=O)NC2=O)cc1)c1ccccn1 (stereo not shown) [rosiglitazone],total ATP-dependent uptake by placental IOVs,[2],1.2 ± 0.2 pmol/mg protein*min
CN(C)C(=N)N=C(N)N [metformin],decrease of uptake on inhibition of P-gp by verapamil (transport by P-gp),"[4]; 100 nM drug, 600 μM verapamil, 1 min",58 ± 20% and 58 ± 10%
same,apparent Kt of ATP-dependent transport by P-gp,[4],100 ± 85 nM
same,"decrease of uptake on total inhibition of P-gp, BCRP, and MRP1 using 1 μM KO143",[1],89 ± 6%
same,total ATP-dependent uptake by placental IOVs,[2],35 pmol/mg protein*min
same,fold greater total transport than glyburide,[2]; [8],10 fold
same,fold greater total transport than rosiglitazone,[2]; [8],30 fold
same,IC50,[5],~600 nM
same,inhibition at 1 min,"[5]; human, placental inside-out vesicles (IOVs), probe [3H]-rosiglitazone, 100 nM",69 ± 6%
same,decrease of uptake on inhibition of MRP1 by indomethacin (transport by MRP1),"[3]; 100 nM drug, 100 μM indomethacin, 1 min",no effect
same,decrease of uptake on inhibition of BCRP by 25 nM KO143 (transport by BCRP),[6],25 ± 14% and 25 ± 8%
CC(=O)O[C@H]1C(=O)[C@@]2(C)[C@H]([C@H](OC(=O)c3ccccc3)[C@]3(O)C[C@H](OC(=O)[C@H](O)[C@@H](NC(=O)c4ccccc4)c4ccccc4)C(C)=C1C3(C)C)[C@]1(OC(C)=O)CO[C@@H]1C[C@@H]2O [paclitaxel],Kt of P-gp-mediated transport,[7],66 ± 38 nM
same,Vmax of P-gp-mediated transport,[7],20 ± 3 pmol/mg protein*min
